According to patent publication US9889180B2, “Method of treating cancer” (Agency for Science, Technology and Research, priority 2012, dated 2018):

How the values were obtained:
DU145 cells = experiment: Cell proliferation assay (CellTiter-Glo) in DU145 cells; assay type: cell-based, human; details: siRNA knockdown combined with IFN-γ treatment
Procedure: (§1) The optimal cell seeding was determined empirically for all cell lines by examining the growth of a wide range of seeding densities in a 96-well format to identify conditions that permitted proliferation for 6 days. Cells were then plated at the optimal seeding density 24 h before siRNA or drug treatment in triplicate. Plates were incubated for 6 days at 37° C. in 5% CO2. Cells were then lysed with CellTiter-Glo (CTG) (Promega) and chemiluminescent signal was detected with a microplate reader (TECAN). In addition, an untreated plate of cells was harvested at the time of drug or siRNA addition (T0) to quantify the starting number of cells. CTG values obtained after the 6 day treatment were expressed as percentages of the T0 value and plotted against time of treatment. Cells received 1-5 μM of DZNep, 25 ng/mL of IFN-γ and 0.1-2.5 μM of GSK343 unless stated otherwise for 72-96 h.

[1] = test system: DU145-derived prostatospheres; experiment: Prostatosphere formation assay, DU145; assay type: cell-based, human; details: EZH2 knockdown in combination with IFN-γ, 7 days
Procedure: Prostatospheres were generated according to protocols known to the skilled person in the art. In order to obtain prostatospheres from either DU145 or LNCaP, exponentially growing cultures were dissociated to single cells by standard trypsinization, washed three times with PBS and plated at a density of 1×10^4 cells/well in 6-well ultra-low attachment plates (Corning) containing 3 ml of SCM medium (DMEM:F12 plus 10 ng/mL bFGF, 20 ng/mL EGF, […], and 0.4% BSA) supplemented with 1% KO serum replacement (Invitrogen/Gibco). The cells were treated with DZNep or IFN-γ as indicated the next day and cultured for 7 days. 7 days old prostatospheres formed were stained with 4 μg/ml p-Iodonitrotetrazolium Violet (INT) overnight and were counted and analyzed using a GelCount™ automatic plate scanner (Oxford Optronics) and GelCount Version 0.025.1 software (Oxford Optronics). Plates were scanned at 1200 dpi and the colony detection algorithm was optimized for each cell type and culture time.

[2] = test system: JAK2 phosphorylation (Tyr1007/1008); experiment: pJAK2 and total JAK2 ELISA assay in DU145 cells; assay type: cell-based, human; details: in response to IFN-γ (25 ng/mL) stimulation
Procedure: pJAK2 levels were assessed using an ELISA assay kit (Tyr1007/1008, Life Technologies) and total JAK2 level with JAK2 (total) ELISA assay kit. Cells were first lysed with RIPA buffer and processed in the same way as western blot samples. pJAK2 and total JAK2 levels were determined by performing the ELISA assay on the processed cell lysates according to the manufacturer's protocol. The results were expressed as fold change after normalizing the pJAK2 (Tyr1007/1008) level to the total JAK2 level.

LNCaP cells = experiment: Cell proliferation assay (CellTiter-Glo) in LNCaP cells; assay type: cell-based, human; details: siRNA knockdown combined with IFN-γ treatment
Procedure: as §1

EZH2/PRC2 and H3K27me3 = molecular target: T1, EZH2/PRC2 and H3K27me3 (Homo sapiens, UniProt Q15910); experiment: Western blot of PRC2 proteins and H3K27me3 in DU145 cells; assay type: cell-based; details: DZNep
T1 construct: endogenous in cells; host or cells: DU145 (named by the earlier reading of the assay)
T1 sequence (Q15910 whole entry): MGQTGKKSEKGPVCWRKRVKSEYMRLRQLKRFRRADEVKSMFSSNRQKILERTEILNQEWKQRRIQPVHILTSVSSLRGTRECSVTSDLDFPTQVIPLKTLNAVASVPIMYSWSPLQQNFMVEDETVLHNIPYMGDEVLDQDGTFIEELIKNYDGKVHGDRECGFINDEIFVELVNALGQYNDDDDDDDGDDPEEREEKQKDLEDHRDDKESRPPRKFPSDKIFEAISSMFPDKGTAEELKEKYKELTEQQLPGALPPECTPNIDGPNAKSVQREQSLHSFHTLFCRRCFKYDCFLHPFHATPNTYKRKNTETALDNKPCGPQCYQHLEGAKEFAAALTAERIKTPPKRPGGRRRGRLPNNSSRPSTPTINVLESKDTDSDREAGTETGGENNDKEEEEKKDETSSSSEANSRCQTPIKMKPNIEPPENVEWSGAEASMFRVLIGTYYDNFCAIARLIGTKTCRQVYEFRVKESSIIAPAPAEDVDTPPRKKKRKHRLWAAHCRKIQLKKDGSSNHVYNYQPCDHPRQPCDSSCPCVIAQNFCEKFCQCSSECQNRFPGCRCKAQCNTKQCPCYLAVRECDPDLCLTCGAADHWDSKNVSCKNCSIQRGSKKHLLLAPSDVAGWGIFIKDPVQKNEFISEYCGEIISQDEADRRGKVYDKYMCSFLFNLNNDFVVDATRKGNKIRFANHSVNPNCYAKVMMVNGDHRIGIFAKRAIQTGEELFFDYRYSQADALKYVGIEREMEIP
T1 sequence (O75530 whole entry partner): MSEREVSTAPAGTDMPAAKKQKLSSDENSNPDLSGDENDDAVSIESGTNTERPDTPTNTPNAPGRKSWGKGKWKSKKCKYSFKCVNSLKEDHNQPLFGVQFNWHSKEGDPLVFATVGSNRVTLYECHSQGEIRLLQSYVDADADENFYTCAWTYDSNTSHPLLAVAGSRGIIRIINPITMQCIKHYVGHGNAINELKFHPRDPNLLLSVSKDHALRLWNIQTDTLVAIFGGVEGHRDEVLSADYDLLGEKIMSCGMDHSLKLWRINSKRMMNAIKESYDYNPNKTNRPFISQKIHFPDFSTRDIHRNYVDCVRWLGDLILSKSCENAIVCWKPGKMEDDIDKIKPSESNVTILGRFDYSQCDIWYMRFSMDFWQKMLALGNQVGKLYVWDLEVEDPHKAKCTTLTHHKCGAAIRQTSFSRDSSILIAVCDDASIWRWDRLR
T1 sequence (Q15022 whole entry partner): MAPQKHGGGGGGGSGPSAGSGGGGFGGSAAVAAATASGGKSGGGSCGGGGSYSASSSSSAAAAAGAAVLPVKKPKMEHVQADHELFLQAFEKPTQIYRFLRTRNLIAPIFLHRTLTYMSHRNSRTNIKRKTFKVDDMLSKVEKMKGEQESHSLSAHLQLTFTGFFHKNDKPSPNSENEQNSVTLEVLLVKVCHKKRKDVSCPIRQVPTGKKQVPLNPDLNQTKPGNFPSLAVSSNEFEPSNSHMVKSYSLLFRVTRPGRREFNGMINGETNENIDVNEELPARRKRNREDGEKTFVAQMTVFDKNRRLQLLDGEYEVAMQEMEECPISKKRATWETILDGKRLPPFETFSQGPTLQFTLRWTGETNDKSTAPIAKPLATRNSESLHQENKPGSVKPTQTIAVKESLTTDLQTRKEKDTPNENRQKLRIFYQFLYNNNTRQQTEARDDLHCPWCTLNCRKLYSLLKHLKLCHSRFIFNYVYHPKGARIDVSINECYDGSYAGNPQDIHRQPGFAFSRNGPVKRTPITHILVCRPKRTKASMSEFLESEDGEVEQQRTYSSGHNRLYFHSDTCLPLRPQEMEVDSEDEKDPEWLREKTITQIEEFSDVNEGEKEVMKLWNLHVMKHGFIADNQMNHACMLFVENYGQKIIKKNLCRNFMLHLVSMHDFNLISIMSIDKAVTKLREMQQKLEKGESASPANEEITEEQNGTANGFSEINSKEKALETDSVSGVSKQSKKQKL
Procedure: Western Blotting was performed as described previously. Briefly, Cells were scraped, collected, and lysed in RIPA buffer. To release histones from chromatin, cell lysates were further sonicated for 15 sec using a XL2000 Microson Ultrasonic Processor (Misonix). Equal amounts of protein (30 μg) were separated on SDS-polyacrylamide gels and transferred to PVDF membranes. The blots were probed with antibodies against EED (07-368), SUZ12 (07-379), trimethylated H3-K27 (07-449), Acetyl-Histone H3 (06-599), which were purchased from Upstate Biotechnology. IFNGR1 (GIR-94) and anti-IFI16 (1G7) were purchased from Santa Cruz. EZH2 phospho S21 (00388) was purchased from Bethyl Laboratories. EZH2 (AC22), P110α PI3K, p-AKT (T308), p-AKT (S473), pSTAT1Y701, total STAT1, Histone H3 (3H1), Beclin-1 and cleaved PARP were purchased from Cell Signaling. Myc and Actin were purchased from Roche Applied Science and Sigma-Aldrich, respectively.

IFNGR1 promoter = experiment: ChIP analysis of EZH2 and H3K27me3 enrichments at IFNGR1 in DU145 cells; assay type: cell-based, human; details: DZNep (2.5 μM), 3 days
Procedure: ChIP assays were performed as described previously. […] The immunoprecipitated DNA was quantified by quantitative real-time PCR using KAPA SyBr Fast qPCR kit (KAPA biosystems) with the specific ChIP primers as listed in the Table 4. Quantification of binding to the promoter was defined as the percentage of the whole cell lysate input DNA. The fold enrichment was derived by normalizing the specific antibody enriched against the IgG-enriched chromatin. CNR1 serves a positive control and Actin is a negative control. Significance of target genes was assessed relative to Actin level.

Compound | cell growth after knockdown (DU145 cells) | tumorsphere formation after knockdown [1] | JAK2 phosphorylation after knockdown [2] | cell growth after knockdown (LNCaP cells) | PRC2 protein levels (EZH2, EED, SUZ12) (EZH2/PRC2 and H3K27me3) | depletion of H3K27me3 (EZH2/PRC2 and H3K27me3) | EZH2 and H3K27me3 enrichments at the IFNGR1 gene promoter (IFNGR1 promoter)
EZH2 knockdown: EZH2 siRNA: 5′-GACUCUGAAUGCAGUUGCU-3′ (SEQ ID NO: 1) (other strand not given here) | remarkable synergy in cell growth regression | efficiently inhibited the tumorsphere formation | enhanced | no such an effect was seen |  |  | 
Cl.Nc1nccc2c1ncn2[C@@H]1C=C(CO)[C@@H](O)[C@H]1O [DZNep, (−)-1-[(1R,4R,5S)-3-(Hydroxymethyl)-4,5-dihydroxy-2-cyclopenten-1-yl]4-aminoimidazo[4,5-c]pyridine hydrochloride] |  |  |  |  | depleted EZH2, as well as the other two PRC2 proteins EED and SUZ12 | much lower efficiency in depleting H3K27me3 | reduced both EZH2 and H3K27me3 enrichments
